# Data: ChEMBL document CHEMBL3885861, “Open TG-GATES”
# Organism: Rattus norvegicus
# Assay: Open TG-GATES - Regimen: Daily Repeat
# Assay type: toxicity, organism-based, Sprague-Dawley
# Set-up: regimen Daily Repeat, gender Male, age 6 weeks
# Conditions: in vivo, iv, route intravenous injection; for APTT / Bas / Eos / Fbg / Ht / Lym / MCH / MCHC / MCV / Mono / Neu / PT / Plat / RBC / Ret / WBC / Hb: tissue Blood; for KIDNEY_L / KIDNEY_R / KIDNEY_TOTAL: tissue Kidney; for LIVER: tissue Liver
# [1] = 0 mg/kg, 72 h, dose level Control, time 3 day
# [2] = 0 mg/kg, 72 h, tissue Plasma, dose level Control, time 3 day
# [3] = 0 mg/kg, […], dose level Control, time 7 day
# [4] = 0 mg/kg, […], dose level Control, time 14 day
# [5] = 0 mg/kg, […], dose level Control, time 28 day
# [6] = 0 mg/kg, […], tissue Plasma, dose level Control, time 7 day
# [7] = 0 mg/kg, […], tissue Plasma, dose level Control, time 14 day
# [8] = 0 mg/kg, […], tissue Plasma, dose level Control, time 28 day
# [9] = 10 mg/kg, 72 h, dose level Low, time 3 day
# [10] = 10 mg/kg, 72 h, tissue Plasma, dose level Low, time 3 day
# [11] = 10 mg/kg, […], dose level Low, time 7 day
# [12] = 10 mg/kg, […], dose level Low, time 14 day
# [13] = 10 mg/kg, […], dose level Low, time 28 day
# [14] = 10 mg/kg, […], tissue Plasma, dose level Low, time 7 day
# [15] = 10 mg/kg, […], tissue Plasma, dose level Low, time 14 day
# [16] = 10 mg/kg, […], tissue Plasma, dose level Low, time 28 day
sequence,measurement,setting,value
GENTAMICIN,TERMINAL_BW,[1],231.1 g
same,APTT,[1],23.2 s
same,Bas,[1],0%
same,Eos,[1],1%
same,Fbg,[1],286.6 mg/dL
same,Ht,[1],37.6%
same,Lym,[1],72.8%
same,MCH,[1],21.1 pg
same,MCHC,[1],34.9%
same,MCV,[1],60.6 fL
same,Mono,[1],3.2%
same,Neu,[1],21.6%
same,PT,[1],16.9 s
same,Plat,[1],119.1 x10_4/uL
same,RBC,[1],621 x10_4/ul
same,Ret,[1],5.8%
same,WBC,[1],105.4 x10_2/uL
same,KIDNEY_L,[1],1.1 g
same,KIDNEY_R,[1],1 g
same,KIDNEY_TOTAL,[1],2.1 g
same,ALP,[2],1838 IU/L
same,ALT,[2],41.8 IU/L
same,AST,[2],70.2 IU/L
same,BUN,[2],16.2 mg/dL
same,CRE,[2],0.2 mg/dL
same,DBIL,[2],0 mg/dL
same,IP,[2],6.9 mg/dL
same,K,[2],4.5 meq/L
same,LDH,[2],157.2 IU/L
same,Na,[2],139.6 meq/L
same,PL,[2],147.8 mg/dL
same,RALB,[2],3 g/dL
same,TBIL,[2],0.006 mg/dL
same,TC,[2],72.8 mg/dL
same,TG,[2],107.6 mg/dL
same,TP,[2],5.5 g/dL
same,gamma-GTP,[2],1.6 IU/L
same,TERMINAL_BW,[3],261.2 g
same,TERMINAL_BW,[4],307.6 g
same,TERMINAL_BW,[5],392.7 g
same,APTT,[3],22.1 s
same,Bas,[3],0%
same,Eos,[3],0.8%
same,Fbg,[3],273.2 mg/dL
same,Ht,[3],37.1%
same,Lym,[3],80%
same,MCH,[3],20.6 pg
same,MCV,[3],58.5 fL
same,Mono,[3],3%
same,Neu,[3],15.5%
same,PT,[3],16 s
same,Plat,[3],118.1 x10_4/uL
same,RBC,[3],636.2 x10_4/ul
same,Ret,[3],4.1%
same,WBC,[3],124.9 x10_2/uL
same,APTT,[4],23 s
same,Bas,[4],0%
same,Eos,[4],0.8%
same,Fbg,[4],267.8 mg/dL
same,Ht,[4],40.2%
same,Lym,[4],78%
same,MCH,[4],21 pg
same,MCHC,[4],35.7%
same,MCV,[4],58.8 fL
same,Mono,[4],2.6%
same,Neu,[4],17.6%
same,PT,[4],16.2 s
same,Plat,[4],123.5 x10_4/uL
same,RBC,[4],684.8 x10_4/ul
same,Ret,[4],4%
same,WBC,[4],103.9 x10_2/uL
same,APTT,[5],24.6 s
same,Bas,[5],0%
same,Eos,[5],1.2%
same,Fbg,[5],290.2 mg/dL
same,Hb,[5],15.4 g/dL
same,Ht,[5],43.3%
same,Lym,[5],83%
same,MCHC,[5],35.5%
same,MCV,[5],57.6 fL
same,Mono,[5],2%
same,Plat,[5],102.2 x10_4/uL
same,RBC,[5],752 x10_4/ul
same,Ret,[5],2.3%
same,WBC,[5],107.5 x10_2/uL
same,KIDNEY_L,[3],1.1 g
same,KIDNEY_R,[3],1.1 g
same,KIDNEY_TOTAL,[3],2.2 g
same,KIDNEY_L,[4],1.2 g
same,KIDNEY_R,[4],1.2 g
same,KIDNEY_TOTAL,[4],2.4 g
same,KIDNEY_L,[5],1.4 g
same,KIDNEY_R,[5],1.3 g
same,KIDNEY_TOTAL,[5],2.7 g
same,LIVER,[5],15.2 g
same,ALP,[6],1702.5 IU/L
same,ALT,[6],40.5 IU/L
same,AST,[6],72.2 IU/L
same,BUN,[6],17 mg/dL
same,CRE,[6],0.2 mg/dL
same,DBIL,[6],0 mg/dL
same,GLC,[6],214 mg/dL
same,IP,[6],6.8 mg/dL
same,K,[6],4.4 meq/L
same,LDH,[6],207.2 IU/L
same,PL,[6],135.2 mg/dL
same,RALB,[6],2.9 g/dL
same,TBIL,[6],0.005 mg/dL
same,TC,[6],68.5 mg/dL
same,TG,[6],94.5 mg/dL
same,TP,[6],5.4 g/dL
same,gamma-GTP,[6],1.5 IU/L
same,ALP,[7],1249.2 IU/L
same,ALT,[7],33.4 IU/L
same,AST,[7],61.6 IU/L
same,CRE,[7],0.2 mg/dL
same,DBIL,[7],0 mg/dL
same,GLC,[7],198.6 mg/dL
same,IP,[7],7 mg/dL
same,K,[7],4.7 meq/L
same,PL,[7],140.8 mg/dL
same,RALB,[7],3 g/dL
same,TBIL,[7],0.002 mg/dL
same,TC,[7],63.2 mg/dL
same,TG,[7],154 mg/dL
same,TP,[7],5.6 g/dL
same,gamma-GTP,[7],2 IU/L
same,ALP,[8],976 IU/L
same,ALT,[8],34.8 IU/L
same,AST,[8],58.8 IU/L
same,BUN,[8],18.2 mg/dL
same,CRE,[8],0.2 mg/dL
same,DBIL,[8],0 mg/dL
same,GLC,[8],190.8 mg/dL
same,IP,[8],6.5 mg/dL
same,K,[8],4.1 meq/L
same,LDH,[8],115.4 IU/L
same,PL,[8],135.6 mg/dL
same,RALB,[8],3 g/dL
same,TBIL,[8],0.004 mg/dL
same,TG,[8],101 mg/dL
same,TP,[8],6 g/dL
same,gamma-GTP,[8],2.4 IU/L
same,TERMINAL_BW,[9],228.4 g
same,Bas,[9],0%
same,Eos,[9],0.8%
same,Fbg,[9],300.8 mg/dL
same,Ht,[9],38.3%
same,Lym,[9],71.8%
same,MCHC,[9],34.8%
same,MCV,[9],59.9 fL
same,Mono,[9],3.8%
same,Neu,[9],22%
same,PT,[9],17 s
same,Plat,[9],124.4 x10_4/uL
same,RBC,[9],640 x10_4/ul
same,Ret,[9],5.2%
same,WBC,[9],102 x10_2/uL
same,KIDNEY_L,[9],1 g
same,KIDNEY_R,[9],1 g
same,KIDNEY_TOTAL,[9],2 g
same,LIVER,[9],10.2 g
same,AST,[10],71.8 IU/L
same,BUN,[10],18.2 mg/dL
same,CRE,[10],0.2 mg/dL
same,DBIL,[10],0 mg/dL
same,GLC,[10],174.6 mg/dL
same,IP,[10],6.6 mg/dL
same,K,[10],4.5 meq/L
same,LDH,[10],157.2 IU/L
same,PL,[10],131.2 mg/dL
same,RALB,[10],3 g/dL
same,TBIL,[10],0.012 mg/dL
same,TC,[10],66.4 mg/dL
same,TG,[10],84.6 mg/dL
same,TP,[10],5.5 g/dL
same,gamma-GTP,[10],1.4 IU/L
same,TERMINAL_BW,[11],260.4 g
same,TERMINAL_BW,[12],320 g
same,TERMINAL_BW,[13],376.9 g
same,APTT,[11],22.1 s
same,Bas,[11],0%
same,Eos,[11],1.4%
same,Fbg,[11],290 mg/dL
same,Hb,[11],13.7 g/dL
same,Ht,[11],40%
same,Lym,[11],75.8%
same,MCHC,[11],34.4%
same,MCV,[11],60.6 fL
same,Mono,[11],2.6%
same,Plat,[11],122 x10_4/uL
same,RBC,[11],660.6 x10_4/ul
same,Ret,[11],4.7%
same,WBC,[11],106.3 x10_2/uL
same,APTT,[12],22.5 s
same,Bas,[12],0%
same,Eos,[12],1%
same,Fbg,[12],298.2 mg/dL
same,Hb,[12],14.1 g/dL
same,Ht,[12],39.7%
same,Lym,[12],75.8%
same,MCH,[12],20.6 pg
same,MCHC,[12],35.5%
same,MCV,[12],58.2 fL
same,Mono,[12],2.8%
same,Neu,[12],18.8%
same,PT,[12],16.5 s
same,Plat,[12],124.8 x10_4/uL
same,RBC,[12],683 x10_4/ul
same,Ret,[12],4.4%
same,WBC,[12],118.2 x10_2/uL
same,APTT,[13],25.6 s
same,Bas,[13],0%
same,Eos,[13],1.6%
same,Fbg,[13],309.2 mg/dL
same,Ht,[13],43.2%
same,MCHC,[13],36.1%
same,MCV,[13],53.9 fL
same,Mono,[13],2%
same,Neu,[13],16.4%
same,PT,[13],16.5 s
same,Plat,[13],112.8 x10_4/uL
same,RBC,[13],803.4 x10_4/ul
same,Ret,[13],1.9%
same,WBC,[13],114.2 x10_2/uL
same,KIDNEY_L,[11],1 g
same,KIDNEY_R,[11],1 g
same,KIDNEY_TOTAL,[11],2.1 g
same,KIDNEY_L,[12],1.3 g
same,KIDNEY_R,[12],1.3 g
same,KIDNEY_TOTAL,[12],2.6 g
same,KIDNEY_L,[13],1.4 g
same,KIDNEY_R,[13],1.4 g
same,KIDNEY_TOTAL,[13],2.7 g
same,LIVER,[12],13.6 g
same,LIVER,[13],13.7 g
same,ALP,[14],1411.6 IU/L
same,ALT,[14],40.2 IU/L
same,AST,[14],73 IU/L
same,BUN,[14],18.2 mg/dL
same,CRE,[14],0.2 mg/dL
same,DBIL,[14],0 mg/dL
same,GLC,[14],188.6 mg/dL
same,IP,[14],6.5 mg/dL
same,K,[14],4.3 meq/L
same,LDH,[14],203.6 IU/L
same,PL,[14],146.8 mg/dL
same,RALB,[14],3 g/dL
same,TBIL,[14],0.008 mg/dL
same,TC,[14],70.4 mg/dL
same,TG,[14],121.8 mg/dL
same,TP,[14],5.5 g/dL
same,gamma-GTP,[14],1.2 IU/L
same,ALP,[15],1519.6 IU/L
same,ALT,[15],37 IU/L
same,AST,[15],65.4 IU/L
same,CRE,[15],0.2 mg/dL
same,DBIL,[15],0 mg/dL
same,GLC,[15],186.6 mg/dL
same,IP,[15],6.3 mg/dL
same,K,[15],4.4 meq/L
same,LDH,[15],131.2 IU/L
same,RALB,[15],3.1 g/dL
same,TBIL,[15],0.006 mg/dL
same,TC,[15],61.8 mg/dL
same,TG,[15],152 mg/dL
same,TP,[15],5.8 g/dL
same,gamma-GTP,[15],1.8 IU/L
same,AST,[16],66 IU/L
same,CRE,[16],0.2 mg/dL
same,DBIL,[16],0 mg/dL
same,GLC,[16],176 mg/dL
same,IP,[16],5.8 mg/dL
same,K,[16],4.1 meq/L
same,LDH,[16],137.2 IU/L
same,PL,[16],132 mg/dL
same,RALB,[16],3.1 g/dL
same,TBIL,[16],0.004 mg/dL
same,TC,[16],67.4 mg/dL
same,TG,[16],113.6 mg/dL
same,TP,[16],6.1 g/dL
